Results on 1 molecule are retold here after patent US20200270309A1, “MALEIMIDE GROUP-MODIFIED ANGIOGENESIS INHIBITOR HM-1 AND USE THEREOF” (NANJING ANJI BIOLOGICAL TECHNOLOGY CO., LTD, priority 2017, published 2020).

The test system of this test is xylene-induced ear swelling. Nature of the test: Xylene-induced mouse ear swelling. As to conditions: Kunming mice, dose 2 mg/kg, injected once a day for 5 days. In kind it is in vivo. The procedure:
Kunming mice were taken, a normal saline group was taken as a blank control group, an aspirin group (200 mg/kg) was taken as a positive control group, and X1-X90 administration groups were taken as test groups. The mice were injected once a day for 5 consecutive days. The blank control group was given an equal volume of normal saline. One hour after the last administration, 0.05 mL of xylene was applied to both sides of the right ear of each mouse to cause inflammation, while no drug was applied to the left ear as a normal ear. Two hours later, the mice were put to death by dislocation. Two ears were cut along the auricle. Ear pieces were taken with a puncher and weighed, and the swelling degree and the swelling rate were calculated. Swelling degree=right ear piece weight-left ear piece weight, swelling rate=(swelling degree/left ear piece weight)*100%. Statistical t-test was conducted on the experimental results. *P<0.05 indicates significant difference, and **P<0.01 indicates extremely significant difference.

Each structure is given as a SMILES string. Peptide text beside a SMILES is read from it. * marks the point of attachment. X66 = O=C1C=CC(=O)N1c1cccc(CCCCCCCC(=O)*)c1

For the molecule `C[C@H](NC(=O)CNC(=O)[C@H](CCCNC(=N)N)NC(=O)CCCCCCCc1cccc(N2C(=O)C=CC2=O)c1)C(=O)N[C@@H](CC(=O)O)C(=O)N[C@@H](CCCNC(=N)N)C(=O)N[C@@H](C)C(=O)NCC(=O)NCC(=O)NCC(=O)NCC(=O)N[C@@H](CCCNC(=N)N)C(=O)NCC(=O)N[C@@H](CC(=O)O)C(=O)O` [X31] (X66-RGADRAGGGGRGD-OH), the “Swelling degree” value (right minus left ear piece weight 2 h after xylene) was found to be 3.16 ± 0.55 mg. For the same molecule, the “Inhibition rate (%)” value (xylene-induced ear swelling) came out at 16.85%.
